Experimental data published in patent publication US20260265055A1, “Sulfine-Based Compounds for Generating Hydrogen Persulfide” (Brown University, priority 2023, published 2026).

Biological target: T1, GAPDH (Oryctolagus cuniculus, UniProt P46406)
T1 construct: GAPDH (from rabbit muscle, #G2267, Sigma-Aldrich); purchased Sigma-Aldrich G2267; host or cells: rabbit muscle (tissue-purified)
Assay: GAPDH protein S-persulfidation (SSP4 fluorescence, LC-MS/MS)
Assay type: biochemical, rabbit
Description: One of the primary functions of H2S2 is to induce protein S-persulfidation. Existing methods treat proteins with Na2S2 directly to obtain the persulfidated proteins. The present disclosure contemplates the use of TTS and H2S to persulfidate proteins as a comparison with Na2S2. GAPDH was used as the protein model and its persulfidation was evaluated by SSP4 using a protocol described in Shieh, M. et al., Shining a light on SSP4: a comprehensive analysis and biological applications for the detection of sulfane sulfurs. Redox Biol. 2022, 56, 102433 and Ni, X. et al., A sweet H2S/H2O2 dual release system and specific protein S-persulfidation mediated by thioglucose/glucose oxidase. J. Am. Chem. Soc. 2021, 143, 13325-13332. Reduced GAPDH (100 μM) was individually treated with 10 eq. of TTS+Na2S or Na2S2, as well as control reagents (TTS or Na2S only). The protein samples were then purified using Zeba Spin Desalting Columns (7K MWCO), diluted (to 10 μM), and treated with SSP4 (5 μM). Fluorescence signals were recorded to reflect persulfidation levels. […] To provide further evidence of persulfidation in the GAPDH system, TTS+Na2S-treated GAPDH was alkylated with HPE-IAM to stabilize the protein persulfides.
216 μL of PBS (50 mM, pH 7.4) was added to 3.9 mg of GAPDH (from rabbit muscle, #G2267, Sigma-Aldrich) to obtain a concentration of 500 μM (MW: 36 kDa). DTT (10 mM in DMSO, 11.35 μL) was added for a final equal concentration with the GAPDH. The solution was incubated in the dark at room temperature for 30 min. Zeba 7K MWCO spin columns were prepared and used according to manufacturer's instructions with 3 PBS washes. Excess reductant was removed by column purification with the Zeba 7K MWCO columns. The resulting reduced protein concentration was determined by the absorbance at 280 nm (εmM=30.4 mM-1 cm-1) using the Nanodrop One Microvolume UV-Vis Spectrophotometer (ThermoFisher Scientific). For controls, reduced GAPDH was treated with NEM (1:5 equiv.) and incubated at rt in the dark for 30 min before excess NEM was removed by the Zeba 7K MWCO columns. Next, the reduced protein was diluted to a final concentration of 100 μM in a final volume of 100 μL and treated with TTS (10 μL of 10 mM in DMSO for a final concentration of 1 mM), Na2S (10 μL of 10 mM in MilliQ H2O for a final concentration of 1 mM), both TTS and Na2S, or Na2S2 (10 μL of 10 mM in MilliQ H2O for a final concentration of 1 mM). For example, if the reduced protein (361 μM) was only to be treated with TTS, 62.3 μL of PBS (50 mM, pH 7.4) would first be added to an Eppendorf tube, followed by 27.7 μL of protein, and followed by 10 μL of TTS. TTS+Na2S and Na2S2 samples were also prepared at the concentrations above without any protein, where PBS (50 mM, pH 7.4) was used in place of the proteins (volume-wise). Samples were incubated at room temperature for 30 min in the dark before being purified by Zeba 7K MWCO columns (three times to ensure proper removal of excess treatment molecules) and quantified by absorbance. […] All samples were then incubated with SSP4 (5 μL of 100 μM in DMSO for a final concentration of 5 μM) in individual wells of a black clear flat bottom 96-well plate. The final volume was 100 μL. For example, if the persulfidated protein (99.5 μM) was to be examined, 84.95 μL of PBS (50 mM, pH 7.4) would first be added to a well, followed by 10.05 μL of protein, and then followed by 5 μL of SSP4. Incubation occurred at room temperature in the dark for 30 min before being measured on the SpectraMax iD3 microplate reader (ex: 485 nm; em: 525 nm).

T1 sequence (P46406 whole entry): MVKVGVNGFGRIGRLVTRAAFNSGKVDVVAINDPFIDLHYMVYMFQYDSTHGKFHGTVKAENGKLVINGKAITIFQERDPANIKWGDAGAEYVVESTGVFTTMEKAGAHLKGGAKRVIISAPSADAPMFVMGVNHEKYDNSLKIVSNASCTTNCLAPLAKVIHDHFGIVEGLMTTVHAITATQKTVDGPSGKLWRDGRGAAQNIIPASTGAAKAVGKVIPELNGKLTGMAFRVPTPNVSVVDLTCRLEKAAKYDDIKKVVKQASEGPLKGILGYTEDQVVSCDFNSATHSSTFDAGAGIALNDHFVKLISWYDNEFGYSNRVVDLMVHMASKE

- GAPDH persulfidation signal compared with Na2S2 (TTS 1 mM + Na2S 1 mM vs Na2S2 1 mM, one-way ANOVA): significantly higher signals than Na2S2
- GAPDH persulfidation by LC-MS/MS after HPE-IAM alkylation and trypsin digestion (TTS+Na2S-treated GAPDH): successful protein persulfidation
- SSP4 fluorescence of persulfidated GAPDH (reduced GAPDH 100 μM treated with TTS 1 mM + Na2S 1 mM): strong fluorescence
- SSP4 fluorescence of persulfidated GAPDH (reduced GAPDH 100 μM treated with the reagent only (1 mM)): did not give any notable fluorescence
SMILES: COC(=O)c1ccc(=S=O)sc1 [TTS, 2H-thiopyran-2-thione sulfine]
